{
  "source": "patent US20260374782A1",
  "about": "“NEW COMPOUNDS, PROCESSES FOR PREPARING THE SAME AND THEIR USE AS DRUGS” (B&A ONCOMEDICAL, priority 2022, published 2026)",
  "key": {"[1]": {"target": "T1, NKCC1 (Homo sapiens, UniProt P55011)", "T1 construct": "endogenous in cells; host or cells: native HEK293 cells", "T1 sequence (P55011 1-1212)": "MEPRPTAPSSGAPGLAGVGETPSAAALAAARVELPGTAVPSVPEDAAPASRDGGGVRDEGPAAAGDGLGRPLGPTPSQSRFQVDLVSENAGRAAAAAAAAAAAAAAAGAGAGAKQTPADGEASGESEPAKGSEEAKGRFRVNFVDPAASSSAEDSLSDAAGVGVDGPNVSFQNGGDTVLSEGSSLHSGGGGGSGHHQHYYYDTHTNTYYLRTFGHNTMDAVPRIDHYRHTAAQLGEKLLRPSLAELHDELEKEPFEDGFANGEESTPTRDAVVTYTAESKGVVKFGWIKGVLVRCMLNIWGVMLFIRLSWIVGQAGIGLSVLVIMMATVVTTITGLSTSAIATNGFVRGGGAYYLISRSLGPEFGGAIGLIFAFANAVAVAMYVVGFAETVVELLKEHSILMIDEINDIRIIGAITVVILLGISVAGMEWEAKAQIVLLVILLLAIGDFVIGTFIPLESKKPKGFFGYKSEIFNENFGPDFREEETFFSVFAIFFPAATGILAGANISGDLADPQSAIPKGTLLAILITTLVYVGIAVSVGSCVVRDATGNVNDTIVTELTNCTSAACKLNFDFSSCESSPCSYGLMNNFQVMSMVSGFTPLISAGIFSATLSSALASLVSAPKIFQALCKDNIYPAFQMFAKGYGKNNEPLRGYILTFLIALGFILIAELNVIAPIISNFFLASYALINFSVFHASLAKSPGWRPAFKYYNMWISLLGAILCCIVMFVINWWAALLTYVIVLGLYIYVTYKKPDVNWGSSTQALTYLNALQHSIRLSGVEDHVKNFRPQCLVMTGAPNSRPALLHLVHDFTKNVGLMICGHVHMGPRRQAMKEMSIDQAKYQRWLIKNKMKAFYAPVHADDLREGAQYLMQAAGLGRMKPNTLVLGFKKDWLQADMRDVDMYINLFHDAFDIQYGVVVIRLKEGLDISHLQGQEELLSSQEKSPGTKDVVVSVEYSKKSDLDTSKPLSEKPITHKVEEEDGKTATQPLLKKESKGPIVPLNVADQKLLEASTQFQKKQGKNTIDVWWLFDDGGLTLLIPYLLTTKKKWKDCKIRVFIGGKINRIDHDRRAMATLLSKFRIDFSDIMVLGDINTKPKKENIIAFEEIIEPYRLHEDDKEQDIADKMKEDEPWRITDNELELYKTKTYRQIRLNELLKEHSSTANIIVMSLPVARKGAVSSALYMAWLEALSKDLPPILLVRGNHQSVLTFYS", "assay": "NKCC1-mediated K+ influx (83Rb tracer uptake) in native HEK293 cells, hypertonic saline, 100 μM ouabain", "assay_type": "cell-based", "conditions": "for inhibition at 2 µM / inhibition at 20 µM: native HEK293; for inhibition at 2 µM: read-out: Percent inhibition of drugs on NKCC1, 2 uM; for inhibition at 20 µM: read-out: Percent inhibition of drugs on NKCC1, 20 uM", "outline": "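Native cells in slightly hypertonic saline with 100 μM ouabain; 15 min preincubation then 15 min 83Rb uptake (0.25 μCi/mL), scintillation counting normalized to protein. Compounds at 2 μM and 20 μM; flux scaled 1000 (no drug) to 0 (20 μM bumetanide), triplicate dishes.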"}, "[2]": {"conditions": "Fragile X, Tuberous Sclerosis, Down syndrome, or Parkinson Disease; cited from earlier work"}, "[3]": {"test_system": "NKCC2", "conditions": "in words; cited from earlier work"}, "[4]": {"conditions": "cited from earlier work"}, "[5]": {"test_system": "NKCC1-KO HEK293 cells", "assay": "K+ influx (83Rb uptake) in NKCC1-KO HEK293 cells", "assay_type": "cell-based, human", "procedure": "A. Contribution of NKCC1 to K^+ influx in native HEK293 cells under isosmotic (basal) conditions. K^+ influx was measured in untreated cells (Cntr), cells exposed to 100 μM ouabain (ouab), 20 μM bumetanide (bum), or both. B. Signal separation between native HEK293 cells with and without 20 μM bumetanide. Cells were tested in a hypertonic saline and in the presence of 100 μM ouabain. These conditions became our standard conditions for drug testing. C. Absence of bumetanide-sensitive K^+ influx in A-NKCC1 HEK293 cells. Note that the K^+ influx was reduced to basal levels.\nNKCC1 expression was eliminated from HEK293 cells using CRISPR/cas9. Cells were transfected with a vector expressing a cas9-EGFP fusion protein and a guide RNA specific to a NKCC1 sequence ([…]; SEQ ID NO: 1) located within exon 1. Two days post transfection, cells were FACS sorted and cells expressing EGFP and cas9 (green cells) were plated at 1 cell per well in 96 well plates. Cells were grown to confluence, duplicated, and tested for NKCC1 function using Tl+ (another congener of K^+) and a thallium sensitive fluorescent dye in the presence or absence of bumetanide."}},
  "data": [
    {"smiles": "CCCCNc1cc(C(=O)O)cc(S(N)(=O)=O)c1Oc1ccccc1", "note": "[Bumetanide]", "values": [
      {"measurement": "flux (normalized)", "setting": "[1]; 2 μM, no drug flux=1000, 20 μM bumetanide flux=0, n=6", "result": "171±21"},
      {"measurement": "attenuation of severity of disorders", "setting": "[2]", "result": "attenuation"},
      {"measurement": "diuretic potency", "setting": "[3]", "result": "high diuretic potency"},
      {"measurement": "brain levels lower than the plasma", "setting": "[4]; brain vs plasma", "result": "200-300 fold"},
      {"measurement": "blood brain barrier permeability", "setting": "[4]; in words", "result": "quite impermeable"},
      {"measurement": "effect on K+ influx in NKCC1-KO cells", "setting": "[5]", "result": "no longer affected K^+ influx"}
    ]},
    {"smiles": "C[C@@H]1O[C@@H](O[C@H]2C[C@@H](O)[C@]3(CO)[C@H]4[C@H](O)C[C@]5(C)[C@@H](C6=CC(=O)OC6)CC[C@]5(O)[C@@H]4CC[C@]3(O)C2)[C@H](O)[C@H](O)[C@H]1O", "note": "[Ouabain, ouabain, reference compound]", "values": [
      {"measurement": "effect on flux not mediated by the cotransporter", "setting": "[1]; 100 μM, inhibitor of the Na+/K+ pump", "result": "greatly reduced the flux not mediated by the cotransporter"}
    ]},
    {"smiles": "CCCCNc1cc(C(=O)O)cc(S(N)(=O)=O)c1Oc1ccccc1", "note": "[Ref 1, bumetanide, reference compound]", "values": [
      {"measurement": "inhibition at 2 µM", "setting": "[1]; 2 μM", "result": 87, "unit": "%"},
      {"measurement": "inhibition at 20 µM", "setting": "[1]; 20 μM", "result": 100, "unit": "%"},
      {"measurement": "K+ influx in the presence of compound", "setting": "[1]; 20 μM, native HEK293 without compound 7000-9000", "result": "600-900 pmoles K+ per mg protein per m"}
    ]},
    {"smiles": "NS(=O)(=O)c1cc(C(=O)O)c(NCc2ccco2)cc1Cl", "note": "[Ref 2, furosemide, reference compound]", "values": [
      {"measurement": "inhibition at 2 µM", "setting": "[1]; 2 μM", "result": 32, "unit": "%"},
      {"measurement": "inhibition at 20 µM", "setting": "[1]; 20 μM", "result": 77, "unit": "%"}
    ]}
  ]
}
